In US20110071108A1, “Beta-Cyclodextrin Derivatives as Antibacterial Agents” (Pinnacle Pharmaceuticals, Inc., priority 2005, published 2011):

How the values were obtained:
Salmonella choleraesuis = experiment: Bacterial panel testing, MIC by broth microdilution; assay type: cell-based; conditions: 20-24 hours growth
Method in brief: (§1)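 Twofold broth microdilution: compound, prepared at 10 μg/ml in DMSO, serially diluted left to right in inoculated Mueller-Hinton or Brain Heart infusion media. Inoculum from 2-4 h cultures at 37° C, standardized to McFarland density. Plates sealed and grown 20-24 h, then clear wells scored.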

Bacillus atrophaeus = experiment: as above; assay type: cell-based; conditions: 20-24 hours growth
Method in brief: as §1

Staphylococcus aureus = experiment: as above; assay type: cell-based; conditions: 20-24 hours growth
Method in brief: as §1

Eschericia coli = experiment: as above; assay type: cell-based; conditions: 20-24 hours growth
Method in brief: as §1

Enterococcus faecium = experiment: as above; assay type: cell-based; conditions: 20-24 hours growth
Method in brief: as §1

Pseudomonas aeruginosa = experiment: as above; assay type: cell-based; conditions: 20-24 hours growth
Method in brief: as §1

Lungs cancer cells A549 = experiment: Mammalian cytotoxicity

Structure (SMILES)	MIC SC (Salmonella choleraesuis)	MIC BA (Bacillus atrophaeus)	MIC SA (Staphylococcus aureus)	MIC EC (Eschericia coli)	MIC EF (Enterococcus faecium)	MIC PA (Pseudomonas aeruginosa)	Mammalian Cytotoxicity IC50 (Lungs cancer cells A549)
OC[C@H]1O[C@@H]2O[C@H]3[C@H](O)[C@@H](O)[C@@H](O[C@H]4[C@H](O)[C@@H](O)[C@@H](O[C@H]5[C@H](O)[C@@H](O)[C@@H](O[C@H]6[C@H](O)[C@@H](O)[C@@H](O[C@H]7[C@H](O)[C@@H](O)[C@@H](O[C@H]8[C@H](O)[C@@H](O)[C@@H](O[C@H]1[C@H](O)[C@H]2O)O[C@@H]8CO)O[C@@H]7CO)O[C@@H]6CO)O[C@@H]5CO)O[C@@H]4CO)O[C@@H]3CO	>200 µg/mL	>200 µg/mL	>200 µg/mL	>200 µg/mL	>200 µg/mL	>200 µg/mL	
Cl.Cl.Cl.Cl.Cl.Cl.Cl.N[C@@H](Cc1ccc(OCc2ccccc2)cc1)C(=O)NC[C@H]1O[C@@H]2O[C@H]3[C@H](O)[C@@H](O)[C@@H](O[C@H]4[C@H](O)[C@@H](O)[C@@H](O[C@H]5[C@H](O)[C@@H](O)[C@@H](O[C@H]6[C@H](O)[C@@H](O)[C@@H](O[C@H]7[C@H](O)[C@@H](O)[C@@H](O[C@H]8[C@H](O)[C@@H](O)[C@@H](O[C@H]1[C@H](O)[C@H]2O)O[C@@H]8CNC(=O)[C@@H](N)Cc1ccc(OCc2ccccc2)cc1)O[C@@H]7CNC(=O)[C@@H](N)Cc1ccc(OCc2ccccc2)cc1)O[C@@H]6CNC(=O)[C@@H](N)Cc1ccc(OCc2ccccc2)cc1)O[C@@H]5CNC(=O)[C@@H](N)Cc1ccc(OCc2ccccc2)cc1)O[C@@H]4CNC(=O)[C@@H](N)Cc1ccc(OCc2ccccc2)cc1)O[C@@H]3CNC(=O)[C@@H](N)Cc1ccc(OCc2ccccc2)cc1	>200 µg/mL	>200 µg/mL	>200 µg/mL	>200 µg/mL	>200 µg/mL	>200 µg/mL	
O=C(O)COC[C@H]1O[C@@H]2O[C@H]3[C@H](O)[C@@H](O)[C@@H](O[C@H]4[C@H](O)[C@@H](O)[C@@H](O[C@H]5[C@H](O)[C@@H](O)[C@@H](O[C@H]6[C@H](O)[C@@H](O)[C@@H](O[C@H]7[C@H](O)[C@@H](O)[C@@H](O[C@H]8[C@H](O)[C@@H](O)[C@@H](O[C@H]1[C@H](O)[C@H]2O)O[C@@H]8COCC(=O)O)O[C@@H]7COCC(=O)O)O[C@@H]6COCC(=O)O)O[C@@H]5COCC(=O)O)O[C@@H]4COCC(=O)O)O[C@@H]3COCC(=O)O	>200 µg/mL	>200 µg/mL	>200 µg/mL	>200 µg/mL	>200 µg/mL	>200 µg/mL	
O[C@@H]1[C@@H](O)[C@H]2O[C@H]3[C@H](O)[C@@H](O)[C@@H](O[C@H]4[C@H](O)[C@@H](O)[C@@H](O[C@H]5[C@H](O)[C@@H](O)[C@@H](O[C@H]6[C@H](O)[C@@H](O)[C@@H](O[C@H]7[C@H](O)[C@@H](O)[C@@H](O[C@H]8[C@H](O)[C@@H](O)[C@@H](O[C@@H]1[C@@H](CSCc1ccccc1)O2)O[C@@H]8CSCc1ccccc1)O[C@@H]7CSCc1ccccc1)O[C@@H]6CSCc1ccccc1)O[C@@H]5CSCc1ccccc1)O[C@@H]4CSCc1ccccc1)O[C@@H]3CSCc1ccccc1	>200 µg/mL	>200 µg/mL	>200 µg/mL	>200 µg/mL	>200 µg/mL	>200 µg/mL	
CC(=O)OC1C2OC(Cn3cc(Cc4ccccc4)nn3)C(OC3OC(Cn4cc(Cc5ccccc5)nn4)C(OC4OC(Cn5cc(Cc6ccccc6)nn5)C(OC5OC(Cn6cc(Cc7ccccc7)nn6)C(OC6OC(Cn7cc(Cc8ccccc8)nn7)C(OC7OC(Cn8cc(Cc9ccccc9)nn8)C(OC8OC(Cn9cc(Cc%10ccccc%10)nn9)C(O2)C(OC(C)=O)C8OC(C)=O)C(OC(C)=O)C7OC(C)=O)C(OC(C)=O)C6OC(C)=O)C(OC(C)=O)C5OC(C)=O)C(OC(C)=O)C4OC(C)=O)C(OC(C)=O)C3OC(C)=O)C1OC(C)=O (stereo not drawn)	>200 µg/mL	>200 µg/mL	>200 µg/mL	>200 µg/mL	>200 µg/mL	>200 µg/mL	
OC1C2OC(Cn3cc(Cc4ccccc4)nn3)C(OC3OC(Cn4cc(Cc5ccccc5)nn4)C(OC4OC(Cn5cc(Cc6ccccc6)nn5)C(OC5OC(Cn6cc(Cc7ccccc7)nn6)C(OC6OC(Cn7cc(Cc8ccccc8)nn7)C(OC7OC(Cn8cc(Cc9ccccc9)nn8)C(OC8OC(Cn9cc(Cc%10ccccc%10)nn9)C(O2)C(O)C8O)C(O)C7O)C(O)C6O)C(O)C5O)C(O)C4O)C(O)C3O)C1O (stereo not drawn)	>200 µg/mL	>200 µg/mL	>200 µg/mL	>200 µg/mL	>200 µg/mL	>200 µg/mL	
Cl.Cl.Cl.Cl.Cl.Cl.Cl.NC(CCC(=O)O)C(=O)NCC1OC2OC3C(CNC(=O)C(N)CCC(=O)O)OC(OC4C(CNC(=O)C(N)CCC(=O)O)OC(OC5C(CNC(=O)C(N)CCC(=O)O)OC(OC6C(CNC(=O)C(N)CCC(=O)O)OC(OC7C(CNC(=O)C(N)CCC(=O)O)OC(OC8C(CNC(=O)C(N)CCC(=O)O)OC(OC1C(O)C2O)C(O)C8O)C(O)C7O)C(O)C6O)C(O)C5O)C(O)C4O)C(O)C3O (stereo not drawn)	>200 µg/mL	>200 µg/mL	>200 µg/mL	>200 µg/mL	>200 µg/mL	>200 µg/mL	
Cl.Cl.Cl.Cl.Cl.Cl.Cl.Cl.Cl.Cl.Cl.Cl.Cl.Cl.NC(Cc1cnc[nH]1)C(=O)NCC1OC2OC3C(CNC(=O)C(N)Cc4cnc[nH]4)OC(OC4C(CNC(=O)C(N)Cc5cnc[nH]5)OC(OC5C(CNC(=O)C(N)Cc6cnc[nH]6)OC(OC6C(CNC(=O)C(N)Cc7cnc[nH]7)OC(OC7C(CNC(=O)C(N)Cc8cnc[nH]8)OC(OC8C(CNC(=O)C(N)Cc9cnc[nH]9)OC(OC1C(O)C2O)C(O)C8O)C(O)C7O)C(O)C6O)C(O)C5O)C(O)C4O)C(O)C3O (stereo not drawn)	>200 µg/mL	>200 µg/mL	>200 µg/mL	>200 µg/mL	>200 µg/mL	>200 µg/mL	
OC1C2OC(CNC(=S)Nc3ccccc3)C(OC3OC(CNC(=S)Nc4ccccc4)C(OC4OC(CNC(=S)Nc5ccccc5)C(OC5OC(CNC(=S)Nc6ccccc6)C(OC6OC(CNC(=S)Nc7ccccc7)C(OC7OC(CNC(=S)Nc8ccccc8)C(OC8OC(CNC(=S)Nc9ccccc9)C(O2)C(O)C8O)C(O)C7O)C(O)C6O)C(O)C5O)C(O)C4O)C(O)C3O)C1O (stereo not drawn)	>200 µg/mL	>200 µg/mL	>200 µg/mL	>200 µg/mL	>200 µg/mL	>200 µg/mL	
OC1C2OC(CNC(=S)NCc3ccccc3)C(OC3OC(CNC(=S)NCc4ccccc4)C(OC4OC(CNC(=S)NCc5ccccc5)C(OC5OC(CNC(=S)NCc6ccccc6)C(OC6OC(CNC(=S)NCc7ccccc7)C(OC7OC(CNC(=S)NCc8ccccc8)C(OC8OC(CNC(=S)NCc9ccccc9)C(O2)C(O)C8O)C(O)C7O)C(O)C6O)C(O)C5O)C(O)C4O)C(O)C3O)C1O (stereo not drawn)	>200 µg/mL	>200 µg/mL	>200 µg/mL	>200 µg/mL	>200 µg/mL	>200 µg/mL	
O[C@@H]1[C@@H](O)[C@H]2O[C@H]3[C@H](O)[C@@H](O)[C@@H](O[C@H]4[C@H](O)[C@@H](O)[C@@H](O[C@H]5[C@H](O)[C@@H](O)[C@@H](O[C@H]6[C@H](O)[C@@H](O)[C@@H](O[C@H]7[C@H](O)[C@@H](O)[C@@H](O[C@H]8[C@H](O)[C@@H](O)[C@@H](O[C@@H]1[C@@H](CNCCc1ccccc1)O2)O[C@@H]8CNCCc1ccccc1)O[C@@H]7CNCCc1ccccc1)O[C@@H]6CNCCc1ccccc1)O[C@@H]5CNCCc1ccccc1)O[C@@H]4CNCCc1ccccc1)O[C@@H]3CNCCc1ccccc1						>200 µg/mL	43 µg/mL
O[C@@H]1[C@@H](O)[C@H]2O[C@H]3[C@H](O)[C@@H](O)[C@@H](O[C@H]4[C@H](O)[C@@H](O)[C@@H](O[C@H]5[C@H](O)[C@@H](O)[C@@H](O[C@H]6[C@H](O)[C@@H](O)[C@@H](O[C@H]7[C@H](O)[C@@H](O)[C@@H](O[C@H]8[C@H](O)[C@@H](O)[C@@H](O[C@@H]1[C@@H](CNC1CCN(Cc9ccccc9)CC1)O2)O[C@@H]8CNC1CCN(Cc2ccccc2)CC1)O[C@@H]7CNC1CCN(Cc2ccccc2)CC1)O[C@@H]6CNC1CCN(Cc2ccccc2)CC1)O[C@@H]5CNC1CCN(Cc2ccccc2)CC1)O[C@@H]4CNC1CCN(Cc2ccccc2)CC1)O[C@@H]3CNC1CCN(Cc2ccccc2)CC1						>200 µg/mL	127 µg/mL
CCCCCCNC[C@H]1O[C@@H]2O[C@H]3[C@H](O)[C@@H](O)[C@@H](O[C@H]4[C@H](O)[C@@H](O)[C@@H](O[C@H]5[C@H](O)[C@@H](O)[C@@H](O[C@H]6[C@H](O)[C@@H](O)[C@@H](O[C@H]7[C@H](O)[C@@H](O)[C@@H](O[C@H]8[C@H](O)[C@@H](O)[C@@H](O[C@H]1[C@H](O)[C@H]2O)O[C@@H]8CNCCCCCC)O[C@@H]7CNCCCCCC)O[C@@H]6CNCCCCCC)O[C@@H]5CNCCCCCC)O[C@@H]4CNCCCCCC)O[C@@H]3CNCCCCCC						>200 µg/mL	129 µg/mL
